Source: US10124004B2, “Pyrido[3,4-d]pyrimidine derivative and pharmaceutically acceptable salt thereof” (Teijin Pharma Limited, priority 2015, dated 2018)
Where two headings read alike, the source gives them in different places.

Tests used:
CDK2/cyclin A2 = target: T1, CDK2/cyclin A2 (Homo sapiens, UniProt P24941); experiment: Human CDK2/cyclin A2 inhibitory activity (QS S Assist CDK2/Cyclin A2_FP Kit, IMAP fluorescence polarization); format: biochemical
T1 construct: purchased Carna Biosciences, Inc. QS S Assist CDK2/Cyclin A2_FP Kit
Experimental: Human CDK2/Cyclin A^2 Inhibitory Activity
Each compound was analyzed for CDK2/cyclin A2 inhibitory activity with an assay kit (QS S Assist CDK2/Cyclin A2_FP Kit, available from Carna Biosciences, Inc.). This assay kit determines kinase activity on the basis of the IMAP technology by Molecular Devices. Specifically, the kinase activity is determined through quantification of a variation in fluorescent polarization caused by binding of a kinase-phosphorylated fluorescent substance to an IMAP-binding reagent.
An assay buffer was prepared by 10-fold dilution of the 10× assay buffer attached to the kit with distilled water, and each solution was prepared with the assay buffer. The assay buffer contained 20 mM HEPES (pH 7.4), 0.01% Tween 20, and 2 mM dithiothreitol. A test compound solution was prepared by dilution of the test compound with dimethyl sulfoxide (DMSO) to a concentration 100 times higher than the final concentration and then 25-fold dilution with the assay buffer to a concentration four times higher than the final concentration. An ATP/substrate/Metal solution was prepared by five-fold dilution of the 5×ATP/substrate/Metal solution attached to the kit with the assay buffer. An enzyme solution was prepared by dilution of the CDK2/cyclin A2 attached to the kit with the assay buffer to a concentration twice higher than the final concentration (final concentration of CDK2/cyclin A2: 2.5 ng/well). A detection reagent was prepared by five-fold dilution of 5×IMAP-binding buffer A with distilled water and 400-fold dilution of the IMAP-binding reagent with the diluted buffer.
The test compound solution (5 μL/well) and the ATP/substrate/Metal solution (5 μL/well) were added to a 384-well plate, and the enzyme solution or the assay buffer (10 μL/well) was added to the plate (total amount of the reaction mixture: 20 μL/well) for initiation of enzymatic reaction. […] The reaction was performed at room temperature for 60 minutes, and the detection reagent (60 μL/well) was then added to the plate, followed by further reaction for 30 minutes at room temperature under light shielding conditions. Subsequently, fluorescent polarization was determined with a microplate reader at an excitation wavelength of 485 nm and an emission wavelength of 535 nm.
The percent inhibition of enzyme activity was calculated for each test compound (note: enzyme activity=100% in the case of addition of the enzyme solution and addition of DMSO instead of the test compound solution, whereas enzyme activity=0% in the case of addition of the assay buffer instead of the enzyme solution and addition of DMSO instead of the test compound solution). The percent inhibition of enzyme activity was fitted to a dose-response curve, to determine a 50% inhibitory concentration against CDK2/cyclin A2.
In each table, “+++” corresponds to IC50<10 nM, “++” 10 nM≤IC50<100 nM, and “+” 100 nM≤IC50.

CDK4/cyclin D3 = target: T2, CDK4/cyclin D3 (Homo sapiens, UniProt P11802); experiment: Human CDK4/cyclin D3 inhibitory activity (QS S Assist CDK4/Cyclin D3_FP Kit, IMAP fluorescence polarization); format: biochemical
T2 construct: purchased Carna Biosciences, Inc. QS S Assist CDK4/Cyclin D3_FP Kit
In short: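 IMAP fluorescence-polarization kinase assay with kit ATP/substrate/metal mix and 12.5 to 25 ng/well enzyme in 20 mM HEPES pH 7.4, 0.01% Tween20, 2 mM DTT. Reaction ran 45 min at room temperature, then binding reagent was added for 30 min in the dark. IC50 was taken from dose-response fits of percent inhibition.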

[1] = 50% inhibitory concentration against CDK2/cyclin A2, given as class symbol
[2] = 50% inhibitory concentration against CDK4/cyclin D3, given as class symbol
[3] = Human CDK2/cyclin A2 inhibitory activity, read-out: CDK2 Activity symbol
[4] = Human CDK4/cyclin D3 inhibitory activity, read-out: CDK4 Activity symbol

T2 sequence (P11802 whole entry): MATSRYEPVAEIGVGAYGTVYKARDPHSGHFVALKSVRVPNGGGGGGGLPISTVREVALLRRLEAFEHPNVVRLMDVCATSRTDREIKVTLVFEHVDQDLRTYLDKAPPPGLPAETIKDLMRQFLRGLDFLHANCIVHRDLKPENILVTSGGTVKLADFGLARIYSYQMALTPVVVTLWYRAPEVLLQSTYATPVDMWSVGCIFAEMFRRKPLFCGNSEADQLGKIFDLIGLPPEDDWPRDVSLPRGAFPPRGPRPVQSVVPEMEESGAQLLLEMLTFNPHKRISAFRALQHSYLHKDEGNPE
T2 sequence (P30281 whole entry partner): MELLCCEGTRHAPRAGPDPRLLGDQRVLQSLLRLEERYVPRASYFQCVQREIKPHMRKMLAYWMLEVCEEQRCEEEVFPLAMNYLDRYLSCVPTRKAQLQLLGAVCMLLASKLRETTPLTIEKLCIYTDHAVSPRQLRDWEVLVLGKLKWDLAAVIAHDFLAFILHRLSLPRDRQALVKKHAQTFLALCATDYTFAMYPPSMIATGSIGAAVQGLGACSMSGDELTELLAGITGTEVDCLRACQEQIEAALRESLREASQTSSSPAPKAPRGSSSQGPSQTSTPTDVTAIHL

Compound | IC50 (CDK2/cyclin A2; [1]) [nM] | IC50 (CDK4/cyclin D3; [2]) [nM] | IC50 (CDK2/cyclin A2; [3]) [nM] | IC50 (CDK4/cyclin D3; [4]) [nM]
CCNc1nc([C@@H](C)O)cc2cnc(Nc3ccc4c(n3)CCNC4)nc12 [Compound 996] | ≥ 100 | < 10 | – | –
CC(=O)c1cc2cnc(Nc3ccc4c(n3)CCNC4)nc2c(NC(C)C)n1 [Compound 1027] | ≥ 100 | < 10 | – | –
C[C@@H](O)c1cc2cnc(Nc3ccc(CN4CCC(O)CC4)cn3)nc2c(NC(C)(C)C)n1 [Compound 1020] | ≥ 100 | < 10 | – | –
CC(C)Nc1nc([C@@H](C)O)cc2cnc(Nc3ccc(CN4CCN(CC#N)CC4)cn3)nc12 [Compound 1015] | ≥ 100 | < 10 | – | –
CC(C)Nc1nc([C@@H](C)O)cc2cnc(Nc3ccc(N4CCN(CCO)CC4=O)cn3)nc12 [Compound 597] | – | – | ≥ 100 | < 10
CNCCCOc1ccc(Nc2ncc3cc([C@@H](C)OC)nc(NC(C)C)c3n2)nc1 [Compound 526] | – | – | ≥ 100 | < 10
CCC(O)c1cc2cnc(Nc3ccc(N4CCNCC4=O)cn3)nc2c(NC(C)C)n1 (centres unmarked) [Compound 1037] | ≥ 100 | 10 to 100 | – | –
CC(C)Nc1nc(C(F)F)cc2cnc(Nc3ccc(N4CCNC(C)(C)C4)cn3)nc12 [Compound 181] | – | – | 10 to 100 | < 10
CC(C)Nc1nc(C(C)O)cc2cnc(Nc3ccc(C4CNCCO4)cn3)nc12 (single isomer, unassigned) [Compound 736] | ≥ 100 | < 10 | – | –
CC(C)Nc1nc(C(C)O)cc2cnc(Nc3ccc(N4CCC(O)C5(CC5)C4)nn3)nc12 (single isomer, unassigned) [Compound 725] | ≥ 100 | < 10 | – | –
CC(C)Nc1nc([C@@H](C)O)cc2cnc(Nc3ccc(O[C@@H]4CCNC[C@H]4F)cn3)nc12 [Compound 567] | – | – | ≥ 100 | < 10
CC(C)Nc1nc([C@@H](C)O)cc2cnc(Nc3ccc(C4COCCN4)cn3)nc12 (some centres unmarked) [Compound 798] | ≥ 100 | < 10 | – | –
C[C@@H](O)c1cc2cnc(Nc3ccc(CN4CCC(CO)CC4)cn3)nc2c(NCC2CCOCC2)n1 [Compound 1152] | ≥ 100 | < 10 | – | –
CC(C)Nc1nc([C@@H](C)O)cc2cnc(Nc3ccc4c(n3)CCN(C(=O)CO)C4)nc12 [Compound 651] | ≥ 100 | < 10 | – | –
CO[C@H](C)c1cc2cnc(Nc3ccc(N4CCN(C(C)(C)C(=O)O)CC4)nn3)nc2c(NC(C)C)n1 [Compound 678, (R)-2-(4-(6-((8-(isopropylamino)-6-(1-methoxyethyl)pyrido[3,4-d]pyrimidin-2-yl)amino)pyridazin-3-yl)piperazin-1-yl)-2-methylpropanoic acid] | ≥ 100 | 10 to 100 | – | –
CCCNc1nc([C@@H](C)O)cc2cnc(Nc3ccc(CN4CCN(C[C@H](C)O)CC4)cn3)nc12 [Compound 1075] | ≥ 100 | < 10 | – | –
C[C@@H](O)c1cc2cnc(Nc3ccc(CN4CCN(C)CC4)cn3)nc2c(NC(C)(C)CO)n1 [Compound 1106] | ≥ 100 | < 10 | – | –
CO[C@H](C)c1cc2cnc(Nc3ccc(CN4CCN(CC(F)F)CC4)cn3)nc2c(NC(C)C)n1 [Compound 281] | – | – | ≥ 100 | 10 to 100
CC(O)c1cc2cnc(Nc3ccc(N4CCNCC4)cn3)nc2c(NC2CCOC2)n1 (centres unmarked) [Compound 92] | – | – | ≥ 100 | < 10
CCNc1nc([C@@H](C)O)c(Cl)c2cnc(Nc3ccc(CN4CCN(CCO)CC4)cn3)nc12 [Compound 984] | ≥ 100 | < 10 | – | –

Compound | IC50 (CDK2/cyclin A2; [1]) [nM] | IC50 (CDK4/cyclin D3; [2]) [nM] | IC50 (CDK2/cyclin A2; [3]) [nM] | IC50 (CDK4/cyclin D3; [4]) [nM]
CC(=O)N(Cc1ccc(Nc2ncc3cc(C(F)F)nc(NC(C)C)c3n2)nc1)C[C@@H]1CCCO1 [Compound 146] | – | – | ≥ 100 | < 10
CCCNc1nc([C@@H](C)O)cc2cnc(Nc3ccc(CN4CCN(C(C)CO)CC4)cn3)nc12 (single isomer, unassigned) [Compound 1207] | ≥ 100 | < 10 | – | –
Cc1c([C@H](C)O)nc(NC(C)C)c2nc(Nc3ccc(N4CCNCC4)cn3)ncc12 [Compound 65] | – | – | ≥ 100 | 10 to 100
CC(C)Nc1nc([C@@H](C)O)cc2cnc(Nc3ccc(N4CC(CO)C4)nn3)nc12 [Compound 667] | ≥ 100 | < 10 | – | –
CCCCNc1nc([C@@H](C)OC)cc2cnc(Nc3ccc(CN4CCNCC4)cn3)nc12 [Compound 854] | ≥ 100 | < 10 | – | –
CC(=O)N1CCC(c2ccc(Nc3ncc4cc(C(F)F)nc(NC(C)C)c4n3)nc2)CC1 [Compound 178] | – | – | ≥ 100 | < 10
CC(C)Nc1nc([C@@H](C)O)cc2cnc(Nc3ccc(C(=O)N4CCN(C)CC4)cn3)nc12 [Compound 1160] | 10 to 100 | < 10 | – | –
CO[C@H](C)c1cc2cnc(Nc3ccc(NC(=O)C4CCCCN4)cn3)nc2c(NC(C)C)n1 (some centres unmarked) [Compound 838] | ≥ 100 | < 10 | – | –
CCCNc1nc([C@@H](C)O)cc2cnc(Nc3ccc(CN4CCCC(O)C4)cn3)nc12 (some centres unmarked) [Compound 1081] | ≥ 100 | < 10 | – | –
CC(C)Nc1nc([C@@H](C)O)cc2cnc(Nc3ccc(N4CCN(C(C)(C)CO)CC4)nn3)nc12 [Compound 701] | ≥ 100 | < 10 | – | –
CC(C)Nc1nc([C@@H](C)O)cc2cnc(Nc3ccc(N(C)CCN(C)C)cn3)nc12 [Compound 1228] | ≥ 100 | < 10 | – | –
CC(C)Nc1nc([C@@H](C)O)c(Cl)c2cnc(Nc3ccc(N4CCCNCC4=O)cn3)nc12 [Compound 750] | ≥ 100 | < 10 | – | –
CCCNc1nc([C@@H](C)O)cc2cnc(Nc3cc(C)c(CN4CCN(CCO)CC4)cn3)nc12 [Compound 1054] | ≥ 100 | 10 to 100 | – | –
CC(C)Nc1nc([C@@H](C)O)cc2cnc(Nc3ccc(N4C[C@H]5CCN[C@H]5C4=O)cn3)nc12 [Compound 558] | – | – | 10 to 100 | < 10
CC(C)Nc1nc([C@@H](C)O)cc2cnc(Nc3ccc(C4CCCNC(C)C4=O)cn3)nc12 (some centres unmarked) [Compound 686] | ≥ 100 | < 10 | – | –
CO[C@H](C)c1cc2cnc(Nc3ccc(CN4[C@@H](C)COC[C@@H]4C)cn3)nc2c(NC(C)C)n1 [Compound 280] | – | – | ≥ 100 | ≥ 100
CCNc1nc(C(C)=O)cc2cnc(Nc3ccc(N4CCNCC4)cn3)nc12 [Compound 58] | – | – | ≥ 100 | 10 to 100
CO[C@H](C)c1cc2cnc(Nc3ccc(N4CC[C@@H](N)[C@@H](F)C4)cn3)nc2c(NC(C)C)n1 [Compound 466] | – | – | ≥ 100 | < 10
CC(C)Nc1nc([C@@H](C)O)cc2cnc(Nc3ccc(N4CCN[C@@H](C)C4=O)cn3)nc12 [Compound 507] | – | – | ≥ 100 | < 10
CC(C)Nc1nc(C(F)F)cc2cnc(Nc3ccc(N4CCOCC4)cn3)nc12 [Compound 43] | – | – | 10 to 100 | < 10
